Columns and labels:
[1] = system: rape; assay: Test B pre/postemergence rape; format: in vivo, Brassica napus
In short: (§1)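 Response is a visual 0-to-10 score relative to untreated plants, where 0 means no effect and 10 means complete control, taken twelve to sixteen days after application. Treatments went onto soil at planting and onto foliage of 1- to 4-leaf plants, using a surfactant-containing non-phytotoxic solvent.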

[2] = system: blackgrass; assay: Test B pre/postemergence blackgrass; format: in vivo, Alopecurus myosuroides
In short: as §1

[3] = system: smallflower flatsedge; assay: Test B flood test smallflower flatsedge; format: in vivo, Cyperus difformis
In short: (§2)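 Read-out is a visual response score from 0 (no effect) to 10 (complete control), assigned by comparison with untreated controls. Treatment was applied at the 2-leaf stage, and plants stayed in the greenhouse for twelve to sixteen days before scoring.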

[4] = system: wheat; assay: Test B pre/postemergence wheat; format: in vivo, Triticum aestivum
In short: as §1

[5] = system: velvetleaf; assay: Test B pre/postemergence velvetleaf; format: in vivo, Abutilon theophrasti
In short: as §1

[6] = system: pigweed; assay: Test B pre/postemergence pigweed; format: in vivo, Amaranthus retroflexus
In short: as §1

[7] = system: sugar beet; assay: Test B pre/postemergence sugar beet; format: in vivo, Beta vulgaris
In short: as §1

[8] = system: wild oat; assay: Test B pre/postemergence wild oat; format: in vivo, Avena fatua
In short: as §1

[9] = system: corn; assay: Test B pre/postemergence corn; format: in vivo, Zea mays
In short: as §1

[10] = system: purple nutsedge; assay: Test B pre/postemergence purple nutsedge; format: in vivo, Cyperus rotundus; conditions: Postemergence
In short: as §1

[11] = system: duck salad; assay: Test B flood test duck salad; format: in vivo, Heteranthera limosa
In short: as §2

[12] = system: rice; assay: Test B flood test rice; format: in vivo, Oryza sativa
In short: as §2

[13] = system: surinam grass; assay: Test B pre/postemergence surinam grass; format: in vivo, Brachiaria decumbens
In short: as §1

[14] = system: crabgrass; assay: Test B pre/postemergence crabgrass; format: in vivo, Digitaria sanguinalis
In short: as §1

[15] = system: soybean; assay: Test B pre/postemergence soybean; format: in vivo, Glycine max
In short: as §1

[16] = system: bedstraw; assay: Test B pre/postemergence bedstraw; format: in vivo, Galium aparine
In short: as §1

[17] = Preemergence, Rate 62 g/ha, scale of 0 to 10 where 0 is no effect and 10 is complete control
[18] = Preemergence, Rate 250 g/ha, scale of 0 to 10 where 0 is no effect and 10 is complete control
[19] = Preemergence, Rate 500 g/ha, scale of 0 to 10 where 0 is no effect and 10 is complete control
[20] = Rate 62 g/ha, Postemergence, scale of 0 to 10 where 0 is no effect and 10 is complete control
[21] = Rate 125 g/ha, Postemergence, scale 0 to 10
[22] = Rate 125 g/ha, Preemergence, scale of 0 to 10 where 0 is no effect and 10 is complete control
[23] = Rate 500 g/ha, Postemergence, scale 0 to 10, 0 no effect, 10 complete control
[24] = Rate 62 g/ha, headed Pre-emergence (flood test species), scale 0 to 10 (0 no effect, 10 complete control)
[25] = Rate 125 g/ha, Pre-emergence, flood test species, scale 0 to 10 where 0 is no effect and 10 is complete control
[26] = Rate 250 g/ha, Pre-emergence, flood-test species, scale 0 to 10, 0 is no effect, 10 is complete control
[27] = Rate 500 g/ha, Pre-emergence, flood test species, scale 0 to 10 (0 no effect, 10 complete control)

Cc1ccccc1-n1c(=O)on(C(=O)N(c2ccc(N(C)C)cc2)C(C)C)c1=O [Compound 237]
Rape plant response rating [1, 17]: 0
Rape plant response rating [1, 18]: 0
Plant response rating, Rape [1, 19]: 0
Rape plant response rating [1, 20]: 0
Rape plant response rating [1, 21]: 0
Rape plant response rating [1, 22]: 0
Plant response rating (0 to 10; 0 is no effect, 10 is complete control), Rape ([1]; Rate 250 g/ha, Postemergence): 0
Rape plant response rating [1, 23]: 0
Blackgrass plant response rating [2, 17]: 0
Blackgrass plant response rating [2, 18]: 0
Plant response rating, Blackgrass [2, 19]: 0
Blackgrass plant response rating [2, 20]: 0
Blackgrass plant response rating [2, 21]: 0
Blackgrass plant response rating [2, 22]: 0
Plant response rating (0 to 10; 0 is no effect, 10 is complete control), Blackgrass ([2]; Rate 250 g/ha, Postemergence): 0
Blackgrass plant response rating [2, 23]: 0
S. Flatsedge plant response rating [3, 24]: 0
S. Flatsedge plant response rating [3, 25]: 0
S. Flatsedge plant response rating [3, 26]: 0
S. Flatsedge plant response rating [3, 27]: 0
Wheat plant response rating [4, 17]: 0
Wheat plant response rating [4, 18]: 0
Plant response rating, Wheat [4, 19]: 0
Wheat plant response rating [4, 20]: 0
Wheat plant response rating [4, 21]: 0
Wheat plant response rating [4, 22]: 0
Plant response rating (0 to 10; 0 is no effect, 10 is complete control), Wheat ([4]; Rate 250 g/ha, Postemergence): 0
Wheat plant response rating [4, 23]: 0
Velvetleaf plant response rating [5, 17]: 0
Velvetleaf plant response rating [5, 18]: 0
Plant response rating, Velvetleaf [5, 19]: 0
Velvetleaf plant response rating [5, 20]: 0
Velvetleaf plant response rating [5, 21]: 0
Velvetleaf plant response rating [5, 22]: 0
Plant response rating (0 to 10; 0 is no effect, 10 is complete control), Velvetleaf ([5]; Rate 250 g/ha, Postemergence): 0
Velvetleaf plant response rating [5, 23]: 2
Redroot pigweed plant response rating [6, 17]: 0
Redroot pigweed plant response rating [6, 18]: 0
Plant response rating, Redroot pigweed [6, 19]: 0
Redroot pigweed plant response rating [6, 20]: 0
Redroot pigweed plant response rating [6, 21]: 0
Redroot pigweed plant response rating [6, 22]: 0
Plant response rating (0 to 10; 0 is no effect, 10 is complete control), Redroot pigweed ([6]; Rate 250 g/ha, Postemergence): 2
Redroot pigweed plant response rating [6, 23]: 3
Sugarbeets plant response rating [7, 17]: 0
Sugarbeets plant response rating [7, 18]: 0
Plant response rating, Sugarbeets [7, 19]: 0
Sugarbeets plant response rating [7, 20]: 0
Sugarbeets plant response rating [7, 21]: 0
Sugarbeets plant response rating [7, 22]: 0
Plant response rating (0 to 10; 0 is no effect, 10 is complete control), Sugarbeets ([7]; Rate 250 g/ha, Postemergence): 0
Sugarbeets plant response rating [7, 23]: 0
Wild oats plant response rating [8, 17]: 0
Wild oats plant response rating [8, 18]: 0
Plant response rating, Wild oats [8, 19]: 0
Wild oats plant response rating [8, 20]: 0
Wild oats plant response rating [8, 21]: 0
Wild oats plant response rating [8, 22]: 0
Plant response rating (0 to 10; 0 is no effect, 10 is complete control), Wild oats ([8]; Rate 250 g/ha, Postemergence): 0
Wild oats plant response rating [8, 23]: 0
Corn plant response rating [9, 17]: 0
Corn plant response rating [9, 18]: 0
Plant response rating, Corn [9, 19]: 0
Corn plant response rating [9, 20]: 0
Corn plant response rating [9, 21]: 0
Corn plant response rating [9, 22]: 0
Plant response rating (0 to 10; 0 is no effect, 10 is complete control), Corn ([9]; Rate 250 g/ha, Postemergence): 0
Corn plant response rating [9, 23]: 0
Nutsedge plant response rating ([10]; Rate 62 g/ha, scale of 0 to 10 where 0 is no effect and 10 is complete control): 0
Nutsedge plant response rating ([10]; Rate 125 g/ha, scale 0 to 10): 0
Plant response rating (0 to 10; 0 is no effect, 10 is complete control), Nutsedge ([10]; Rate 250 g/ha): 0
Nutsedge plant response rating ([10]; Rate 500 g/ha, scale 0 to 10, 0 no effect, 10 complete control): 0
Ducksalad plant response rating [11, 24]: 0
Ducksalad plant response rating [11, 25]: 0
Ducksalad plant response rating [11, 26]: 0
Ducksalad plant response rating [11, 27]: 0
Rice plant response rating [12, 24]: 0
Rice plant response rating [12, 25]: 0
Rice plant response rating [12, 26]: 0
Rice plant response rating [12, 27]: 0
B. signalgrass plant response rating [13, 17]: 0
B. signalgrass plant response rating ([13]; Preemergence, Rate 250 g/ha, scale 0 to 10, 0 is no effect, 10 is complete control): 0
Plant response rating, B. signalgrass [13, 19]: 0
B. signalgrass plant response rating [13, 20]: 0
B. signalgrass plant response rating ([13]; Rate 125 g/ha, Postemergence, scale 0 (no effect) to 10 (complete control)): 0
B. signalgrass plant response rating [13, 22]: 0
Plant response rating (0 to 10; 0 is no effect, 10 is complete control), B. signalgrass ([13]; Rate 250 g/ha, Postemergence): 0
B. signalgrass plant response rating [13, 23]: 0
Crabgrass plant response rating [14, 17]: 0
Crabgrass plant response rating [14, 18]: 2
Plant response rating, Crabgrass [14, 19]: 3
Crabgrass plant response rating [14, 20]: 0
Crabgrass plant response rating [14, 21]: 0
Crabgrass plant response rating [14, 22]: 0
Plant response rating (0 to 10; 0 is no effect, 10 is complete control), Crabgrass ([14]; Rate 250 g/ha, Postemergence): 0
Crabgrass plant response rating [14, 23]: 0
Soybean plant response rating [15, 17]: 0
Soybean plant response rating [15, 18]: 0
Plant response rating, Soybean [15, 19]: 0
Soybean plant response rating [15, 20]: 0
Soybean plant response rating [15, 21]: 1
Soybean plant response rating [15, 22]: 0
Plant response rating (0 to 10; 0 is no effect, 10 is complete control), Soybean ([15]; Rate 250 g/ha, Postemergence): 1
Soybean plant response rating [15, 23]: 1
Bedstraw plant response rating [16, 17]: 0
Bedstraw plant response rating [16, 18]: 0
Plant response rating, Bedstraw [16, 19]: 0
Bedstraw plant response rating [16, 20]: 0
Bedstraw plant response rating [16, 21]: 0
Bedstraw plant response rating [16, 22]: 0
Plant response rating (0 to 10; 0 is no effect, 10 is complete control), Bedstraw ([16]; Rate 250 g/ha, Postemergence): 2
Bedstraw plant response rating [16, 23]: 3
